Assay results taken from patent publication US7601746B2 (Shionogi & Co., Ltd., priority 2003, dated 2009).

Biological target: T1, human TPO receptor (hTPOR) (Homo sapiens, UniProt P40238)
T1 construct: expressed in transfected cells; host or cells: BaF-B03 (murine IL-3 dependent cell line)
T1 sequence (P40238 26-635): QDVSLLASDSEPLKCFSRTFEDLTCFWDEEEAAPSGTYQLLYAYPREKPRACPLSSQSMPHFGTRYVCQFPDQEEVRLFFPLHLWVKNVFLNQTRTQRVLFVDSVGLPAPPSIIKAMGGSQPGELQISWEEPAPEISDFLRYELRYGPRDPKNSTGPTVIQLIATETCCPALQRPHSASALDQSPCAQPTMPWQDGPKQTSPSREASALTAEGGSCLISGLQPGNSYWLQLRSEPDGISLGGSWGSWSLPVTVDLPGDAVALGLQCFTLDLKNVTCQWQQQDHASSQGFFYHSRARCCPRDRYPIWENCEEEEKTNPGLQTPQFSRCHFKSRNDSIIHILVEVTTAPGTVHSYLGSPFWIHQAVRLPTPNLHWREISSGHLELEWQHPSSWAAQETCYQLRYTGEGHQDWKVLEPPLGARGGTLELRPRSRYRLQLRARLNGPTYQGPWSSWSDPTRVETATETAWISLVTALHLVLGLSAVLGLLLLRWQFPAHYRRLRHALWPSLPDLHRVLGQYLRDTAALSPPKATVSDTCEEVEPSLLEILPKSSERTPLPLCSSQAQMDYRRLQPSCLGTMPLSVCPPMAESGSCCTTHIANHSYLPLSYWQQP
Assay: Thrombopoietic activity: proliferation of TPO dependent BaF/hTPOR cells (WST-1, absorbance at 450 nm)
Format: cell-based
Conditions: 20 h + 4 h WST-1, ED50 = half concentration of the concentration showing the maximum thrombopoietic activity, Table 1
From the text: The TPO dependent BaF/hTPOR cell line which was established by introducing human TPO receptor (hTPOR) into BaF-B03 cells according to Collins et al (J. Cell. Physiol., 137:293-298 (1988)) was used to test the thrombopoietic activity of the present compound. The DNA sequences and encoded peptide sequences for human hTPOR have been described by Vigon et al (Proc. Natl. Acad. Sci. USA, 89:5640-5644 (1992)). TPO dose not have any ability to support proliferation of interlukin-3 dependent parental cell line BaF-B03. BAF/hTPOR cells were maintained in RPMI medium and WEHI-3B conditioned medium as a source of murine interleukin-3 (IL-3). These cells were washed and resuspended in RPMI medium without a source of murine IL-3 and seeded into each well of 96-well microtiter plates at a density of 5×10^4 cells per well in the absence or presence of various concentration of hTPO or the present compound. After incubation at 37° C. for 20 hours in the 5% CO2 incubator, 10% WST-1 reagent (Takara Biomedicals, Japan) was added to each wells and the cells were further incubated for 4 hours. The absorbance at 450 nm was measured. Tables 1 and 2 exemplify the ED50 for tested compounds of the present invention, wherein the ED50 is the half concentration of the concentration showing the maximum thrombopoietic activity.

Row | Structure (SMILES) | EC50 [nM]
1 | CCCCCOC(C)c1cccc(-c2csc(NC(=O)c3cc(F)c(C=C(C)C(=O)O)c(F)c3)n2)c1F (centres unmarked) [Compound B31, 3-(2,6-difluoro-4-{4-[2-fluoro-3-(1-n-pentyloxyethyl)phenyl]thiazol-2-ylcarbamoyl}phenyl)-2-methylacrylic acid] | 0.85
2 | CCCCCCCCCCOCc1cccc(-c2csc(NC(=O)c3cc(F)c(C=C(C)C(=O)O)c(F)c3)n2)c1F [Compound B32, 3-(2,6-difluoro-4-{4-[2-fluoro-3-(n-decyloxymethyl)phenyl]thiazol-2-ylcarbamoyl}phenyl)-2-methylacrylic acid] | 3.03
3 | CCCCCOCc1cccc(-c2csc(NC(=O)c3cc(F)c(C=C(C)C(=O)O)c(F)c3)n2)c1F [Compound B33, 3-(2,6-difluoro-4-{4-[2-fluoro-3-(n-pentyloxymethyl)phenyl]thiazol-2-ylcarbamoyl}phenyl)-2-methylacrylic acid] | 3.33
4 | CCCOC(CCC)c1cccc(-c2csc(NC(=O)c3cc(F)c(C=C(C)C(=O)O)c(F)c3)n2)c1F (centres unmarked) [Compound B34, 3-(2,6-difluoro-4-{4-[2-fluoro-3-(1-n-propyloxybutyl)phenyl]thiazol-2-ylcarbamoyl}phenyl)-2-methylacrylic acid] | 0.99
5 | CCCCOC(CCC)c1cccc(-c2csc(NC(=O)c3cc(F)c(C=C(C)C(=O)O)c(F)c3)n2)c1F (centres unmarked) [Compound B35, 3-(4-{4-[3-(1-n-butyloxybutyl)-2-fluorophenyl]thiazol-2-ylcarbamoyl}-2,6-difluorophenyl)-2-methylacrylic acid] | 0.77
6 | CCCCCOC(CCC)c1cccc(-c2csc(NC(=O)c3cc(F)c(C=C(C)C(=O)O)c(F)c3)n2)c1F (centres unmarked) [Compound B36, 3-(2,6-difluoro-4-{4-[2-fluoro-3-(1-n-pentyloxybutyl)phenyl]thiazol-2-ylcarbamoyl}phenyl)-2-methylacrylic acid] | 0.63
7 | CCCCOC(CC)c1cccc(-c2csc(NC(=O)c3cc(F)c(C=C(C)C(=O)O)c(F)c3)n2)c1F (centres unmarked) [Compound B37, 3-(4-{4-[3-(1-n-butyloxypropyl)-2-fluorophenyl]thiazol-2-ylcarbamoyl}-2,6-difluorophenyl)-2-methylacrylic acid] | 0.88
8 | CCCCCCOC(CC)c1cccc(-c2csc(NC(=O)c3cc(F)c(C=C(C)C(=O)O)c(F)c3)n2)c1F (centres unmarked) [Compound B38, 3-(2,6-difluoro-4-{4-[2-fluoro-3-(1-n-hexyloxypropyl)phenyl]thiazol-2-ylcarbamoyl}phenyl)-2-methylacrylic acid] | 0.62
9 | CC(=Cc1c(F)cc(C(=O)Nc2nc(-c3cccc(CCCOCCCC(C)C)c3F)cs2)cc1F)C(=O)O [Compound B39, 3-[2,6-difluoro-4-(4-(2-fluoro-3-[3-(4-methylpentyloxy)propyl]phenyl}thiazol-2-ylcarbamoyl)phenyl]-2-methylacrylic acid] | 1.01
10 | CC(=Cc1c(F)cc(C(=O)Nc2nc(-c3cccc(CCCOCCC(C)(C)C)c3F)cs2)cc1F)C(=O)O [Compound B40, 3-[2,6-difluoro-4-(4-{3-[3-(3,3-dimethylbutyloxy)propyl]-2-fluorophenyl}thiazol-2-ylcarbamoyl)phenyl]-2-methylacrylic acid] | 0.88
11 | CCCCC(OCCC)c1cccc(-c2csc(NC(=O)c3cc(F)c(C=C(C)C(=O)O)c(F)c3)n2)c1F (centres unmarked) [Compound B41, 3-(2,6-difluoro-4-{4-[2-fluoro-3-(1-n-propyloxypentyl)phenyl]thiazol-2-ylcarbamoyl}phenyl)-2-methylacrylic acid] | 0.67
12 | CCCCOC(CCCC)c1cccc(-c2csc(NC(=O)c3cc(F)c(C=C(C)C(=O)O)c(F)c3)n2)c1F (centres unmarked) [Compound B42, 3-(4-{4-[3-(1-n-butyloxypentyl)-2-fluorophenyl]thiazol-2-ylcarbamoyl}-2,6-difluorophenyl]-2-methylacrylic acid] | 0.34
13 | CCC(CC)COCCCc1cccc(-c2csc(NC(=O)c3cc(F)c(C=C(C)C(=O)O)c(F)c3)n2)c1F [Compound B43, 3-[2,6-difluoro-4-(4-{3-[3-(2-ethylbutyloxy)propyl]-2-fluorophenyl}thiazol-2-ylcarbamoyl}phenyl)-2-methylacrylic acid] | 1.65
14 | CC(=Cc1c(F)cc(C(=O)Nc2nc(-c3cccc(CCCOCCC4CCCC4)c3F)cs2)cc1F)C(=O)O [Compound B44, 3-[4-(4-{3-[3-(2-cyclopentylethyloxy)propyl]-2-fluorophenyl}thiazol-2-ylcarbamoyl}-2,6-difluorophenyl)-2-methylacrylic acid] | 1.27
15 | CCCCCOCCCc1cccc(-c2csc(NC(=O)c3cc(F)c(C=C(C)C(=O)O)c(F)c3)n2)c1F [Compound B45, 3-(2,6-difluoro-4-{4-[2-fluoro-3-(3-n-pentyloxypropyl)phenyl]thiazol-2-ylcarbamoyl}phenyl)-2-methylacrylic acid] | 1.36
16 | CCCCCCOCCCc1cccc(-c2csc(NC(=O)c3cc(F)c(C=C(C)C(=O)O)c(F)c3)n2)c1F [Compound B46, 3-(2,6-difluoro-4-{4-[2-fluoro-3-(3-n-hexyloxypropyl)phenyl]thiazol-2-ylcarbamoyl}phenyl)-2-methylacrylic acid] | 1.28
17 | CCCCCCCCCCC(OC)c1cccc(-c2csc(NC(=O)c3cc(F)c(C=C(C)C(=O)O)c(F)c3)n2)c1F (centres unmarked) [Compound B47, 3-(2,6-difluoro-4-{4-[2-fluoro-3-(1-methyloxyundecyl)phenyl]thiazol-2-ylcarbamoyl}phenyl)-2-methylacrylic acid] | 2.8
18 | CCCCCCCCCCCC(OC)c1cccc(-c2csc(NC(=O)c3cc(F)c(C=C(C)C(=O)O)c(F)c3)n2)c1F (centres unmarked) [Compound B48, 3-(2,6-difluoro-4-{4-[2-fluoro-3-(1-methyloxydodecyl)phenyl]thiazol-2-ylcarbamoyl}phenyl)-2-methylacrylic acid] | 2.23
19 | CCCCOCCCc1cccc(-c2csc(NC(=O)c3cc(F)c(C=C(C)C(=O)O)c(F)c3)n2)c1F [Compound B49, 3-(4-{4-[3-(3-n-butyloxypropyl)-2-fluorophenyl]thiazol-2-ylcarbamoyl}-2,6-difluorophenyl)-2-methylacrylic acid] | 1.3
20 | CCCCOC(C)c1cccc(-c2csc(NC(=O)c3cc(F)c(C=C(C)C(=O)O)c(F)c3)n2)c1F (centres unmarked) [Compound B50, 3-(4-{4-[3-(1-n-butyloxyethyl)-2-fluorophenyl]thiazol-2-ylcarbamoyl}-2,6-difluorophenyl)-2-methylacrylic acid] | 0.8
21 | CCCCOCCCC(OCCCC)c1cccc(-c2csc(NC(=O)c3cc(F)c(C=C(C)C(=O)O)c(F)c3)n2)c1F (centres unmarked) [Compound B51, 3-(4-{4-[3-(1,4-dibutyloxybutyl)-2-fluorophenyl]thiazol-2-ylcarbamoyl}-2,6-difluorophenyl)-2-methylacrylic acid] | 0.68
22 | CCCCCCOCCC(OC)c1cccc(-c2csc(NC(=O)c3cc(F)c(C=C(C)C(=O)O)c(F)c3)n2)c1F (centres unmarked) [Compound B52, 3-(2,6-difluoro-4-{4-[2-fluoro-3-(3-n-hexyloxy-1-methyloxyproyl)phenyl]thiazol-2-ylcarbamoyl}phenyl)-2-methylacrylic acid] | 1.7
23 | CCCCCOCCCC(OC)c1cccc(-c2csc(NC(=O)c3cc(F)c(C=C(C)C(=O)O)c(F)c3)n2)c1F (centres unmarked) [Compound B53, 3-(2,6-difluoro-4-{4-[2-fluoro-3-(1-methyloxy-4-n-pentyloxybutyl)phenyl]thiazol-2-ylcarbamoyl}phenyl)-2-methylacrylic acid] | 1.4
24 | CCOC(c1cccc(-c2csc(NC(=O)c3cc(Cl)c(C=C(C)C(=O)O)c(Cl)c3)n2)c1F)C(C)(C)C (centres unmarked) [Compound B56, 3-(2,6-dichloro-4-{4-[3-(1-ethyloxy-2,2-dimethylpropyl)-2-fluorophenyl]thiazol-2-ylcarbamoyl}phenyl)-2-methylacrylic acid] | 2.7
25 | CCCCCC(OC)c1cccc(-c2csc(NC(=O)c3cc(Cl)c(C=C(C)C(=O)O)c(Cl)c3)n2)c1F (centres unmarked) [Compound B58, 3-(2,6-dichloro-4-{4-[2-fluoro-3-(1-methyloxyhexyl)phenyl]thiazol-2-ylcarbamoyl}phenyl)-2-methylacrylic acid] | 1.5
26 | COC(CCC(C)C)c1cccc(-c2csc(NC(=O)c3cc(Cl)c(C=C(C)C(=O)O)c(Cl)c3)n2)c1F (centres unmarked) [Compound B60, 3-(2,6-dichloro-4-{4-[2-fluoro-3-(1-methyloxy-4-methylpentyl)phenyl]thiazol-2-ylcarbamoyl}phenyl)-2-methylacrylic acid] | 0.75
